# Experimental data from patent US11427548B2 (Arvinas Operations, Inc., priority 2015, dated 2022).
# Biological target: T1, Androgen Receptor (Homo sapiens, UniProt P10275+P40337, T878A)
# T1 construct: Compounds have been evaluated in this assay in LNCaP and/or VCaP cells utilizing similar protocols; endogenous in cells; host or cells: LNCaP cells
# Assay: Androgen Receptor ELISA assay (PathScan AR ELISA) in LNCaP cells: AR degradation, Dmax and DC50
# Type: cell-based
# Conditions: for DC50: concentration that caused 50% Androgen Receptor degradation
# [1] = highest percentage of Androgen Receptor degradation
# [2] = highest percentage of Androgen Receptor degradation observed
# T1 sequence (P10275 whole entry T878A): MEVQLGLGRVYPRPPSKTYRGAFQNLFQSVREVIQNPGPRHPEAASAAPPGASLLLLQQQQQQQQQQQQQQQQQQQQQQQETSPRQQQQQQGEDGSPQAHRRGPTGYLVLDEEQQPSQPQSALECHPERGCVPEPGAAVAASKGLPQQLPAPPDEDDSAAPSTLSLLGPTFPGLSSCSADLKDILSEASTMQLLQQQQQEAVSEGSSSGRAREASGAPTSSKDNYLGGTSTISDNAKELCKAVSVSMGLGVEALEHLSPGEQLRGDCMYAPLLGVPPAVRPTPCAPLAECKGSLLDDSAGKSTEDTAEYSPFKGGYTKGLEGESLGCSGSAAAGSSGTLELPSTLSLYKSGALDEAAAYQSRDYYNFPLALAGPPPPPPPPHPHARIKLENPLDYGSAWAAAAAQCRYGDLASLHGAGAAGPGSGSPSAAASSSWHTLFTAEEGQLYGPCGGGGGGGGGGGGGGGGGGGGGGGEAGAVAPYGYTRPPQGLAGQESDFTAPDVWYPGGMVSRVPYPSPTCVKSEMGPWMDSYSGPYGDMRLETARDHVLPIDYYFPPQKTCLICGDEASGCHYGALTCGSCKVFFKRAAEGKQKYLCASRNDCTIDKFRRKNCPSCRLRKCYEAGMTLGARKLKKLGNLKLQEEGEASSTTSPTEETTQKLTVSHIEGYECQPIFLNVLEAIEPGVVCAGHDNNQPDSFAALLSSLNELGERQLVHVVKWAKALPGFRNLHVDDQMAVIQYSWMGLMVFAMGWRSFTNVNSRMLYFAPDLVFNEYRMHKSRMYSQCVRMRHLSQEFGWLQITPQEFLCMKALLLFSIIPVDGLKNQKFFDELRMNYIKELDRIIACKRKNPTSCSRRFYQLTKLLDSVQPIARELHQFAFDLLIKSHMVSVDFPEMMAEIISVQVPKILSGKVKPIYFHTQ
# T1 sequence (P40337 whole entry): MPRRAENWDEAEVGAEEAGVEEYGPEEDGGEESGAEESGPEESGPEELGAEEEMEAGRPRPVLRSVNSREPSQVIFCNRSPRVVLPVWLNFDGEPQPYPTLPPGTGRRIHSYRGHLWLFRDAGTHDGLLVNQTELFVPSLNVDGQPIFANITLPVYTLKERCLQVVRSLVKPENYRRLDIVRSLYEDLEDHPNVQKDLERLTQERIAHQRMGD
# T1 sequence (Q15369 whole entry partner): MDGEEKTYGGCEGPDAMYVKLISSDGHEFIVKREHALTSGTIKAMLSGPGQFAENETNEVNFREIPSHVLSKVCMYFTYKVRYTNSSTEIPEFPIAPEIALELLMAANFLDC
# T1 sequence (Q15370 whole entry partner): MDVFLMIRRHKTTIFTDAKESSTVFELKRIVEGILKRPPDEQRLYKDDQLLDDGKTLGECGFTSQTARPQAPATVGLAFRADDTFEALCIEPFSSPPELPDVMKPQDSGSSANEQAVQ
Compound,DC50,Dmax [1],Dmax [2]
Cc1ncsc1-c1ccc(CNC(=O)[C@@H]2C[C@@H](O)CN2C(=O)[C@@H](NC(=O)CCCCOCCCCCOc2ccc(N3C(=S)N(c4ccc(C#N)c(C(F)(F)F)c4)C(=O)C3(C)C)cc2)C(C)(C)C)cc1 [Example 246],51 to 500 nM,> 71%,
Cc1ncsc1-c1ccc(CNC(=O)[C@@H]2C[C@@H](O)CN2C(=O)[C@@H](NC(=O)CCCCCOCCCCOCCCCOc2ccc(N3C(=S)N(c4ccc(C#N)c(C(F)(F)F)c4)C(=O)C3(C)C)cc2)C(C)(C)C)cc1 [Example 227],< 50 nM,26 to 50%,
"Cc1ncsc1-c1ccc([C@H](C)NC(=O)[C@@H]2C[C@@H](O)CN2C(=O)[C@@H](NC(=O)COCCOCCOCCOc2ccc(N3C(=S)N(c4ccc(C#N)c(C(F)(F)F)c4)C(=O)C3(C)C)cc2)C(C)(C)C)cc1 [Example 20, (2S,4R)-1-[(2S)-2-[2-(2-{2-[2-(4-{3-[4-cyano-3-(trifluoromethyl)phenyl]-5,5-dimethyl-4-oxo-2-sulfanylideneimidazolidin-1-yl}phenoxy)ethoxy]ethoxy}ethoxy)acetamido]-3,3-dimethylbutanoyl]-4-hydroxy-N-[(1S)-1-[4-(4-methyl-1,3-thiazol-5-yl)phenyl]ethyl]pyrrolidine-2-carboxamide]",51 to 500 nM,,> 71%
"Cc1ncsc1-c1ccc(CNC(=O)[C@@H]2C[C@@H](O)CN2C(=O)[C@H](C(C)C)N2Cc3ccccc3C2=O)c(OCCOCCOCCOc2ccc(N3C(=S)N(c4ccc(C#N)c(C(F)(F)F)c4)C(=O)C3(C)C)cc2)c1 [Example 82, (2S,4R)—N-(2-(2-(2-(2-(4-(3-(4-cyano-3-(trifluoromethyl)phenyl)-5,5-dimethyl-4-oxo-2-thioxoimidazolidin-1-yl)phenoxy)ethoxy)ethoxy)ethoxy)-4-(4-methylthiazol-5-yl)benzyl)-4-hydroxy-1-((S)-3-methyl-2-(1-oxoisoindolin-2-yl)butanoyl)pyrrolidine-2-carboxamide]",51 to 500 nM,,51 to 70%
CC(=O)N[C@H](C(=O)N1C[C@H](O)C[C@H]1C(=O)NCc1ccc(-c2scnc2C)cc1OCCOCCOCCOc1ccc(N2C(=S)N(c3ccc(C#N)c(C(F)(F)F)c3)C(=O)C2(C)C)cc1)C(C)C [Example 281],> 501 nM,51 to 70%,
Cc1ncsc1-c1ccc(CNC(=O)[C@@H]2C[C@@H](O)CN2C(=O)[C@@H](NC(=O)c2ccccc2OCCCCOc2ccc(N3C(=S)N(c4ccc(C#N)c(C(F)(F)F)c4)C(=O)C3(C)C)cc2)C(C)(C)C)cc1 [Example 276],> 501 nM,< 25%,
Cc1ncsc1-c1ccc(CNC(=O)[C@@H]2C[C@@H](O)CN2C(=O)[C@@H](NC(=O)c2ccc(OCCOc3ccc(-c4ccc(N5C(=S)N(c6ccc(C#N)c(C(F)(F)F)c6)C(=O)C5(C)C)cc4)cc3)cc2)C(C)(C)C)cc1 [Example 286],< 50 nM,51 to 70%,
Cc1ncsc1-c1ccc(CNC(=O)[C@@H]2C[C@@H](O)CN2C(=O)[C@H](C(C)C)N2Cc3cccc(C#N)c3C2=O)c(OCCOCCOCCOc2ccc(N3C(=S)N(c4ccc(C#N)c(C(F)(F)F)c4)C(=O)C3(C)C)cc2)c1 [Example 84],51 to 500 nM,,51 to 70%
Cc1ncsc1-c1ccc(CNC(=O)[C@@H]2C[C@@H](O)CN2C(=O)[C@@H](NC(=O)CCOCCOCCCCCOc2ccc(N3C(=S)N(c4ccc(C#N)c(C(F)(F)F)c4)C(=O)C3(C)C)cc2)C(C)(C)C)cc1 [Example 228],51 to 500 nM,51 to 70%,
CCC(=O)N[C@H](C(=O)N1C[C@H](O)C[C@H]1C(=O)NCc1ccc(-c2scnc2C)cc1OCCOCCOCCOc1ccc(N2C(=O)N(c3ccc(C#N)c(C(F)(F)F)c3)C(=O)C2(C)C)cc1)C(C)(C)C [Example 268],> 501 nM,51 to 70%,
Cc1ncsc1-c1ccc(CNC(=O)[C@@H]2C[C@@H](O)CN2C(=O)[C@H](C(C)C)N2Cc3ccccc3C2=O)c(OCCCCOc2ccc(N3C(=S)N(c4ccc(C#N)c(C(F)(F)F)c4)C(=O)C3(C)C)cc2)c1 [Example 256],51 to 500 nM,51 to 70%,
